Data: the supplement of paper PMC11451515

Tests used:
Details in all cases: 48 h
NOMO1 [1] = experiment: cell viability relative to DMSO control; higher = less cytotoxic
Summary of the method: (§1)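 Viability, reported as a per-plate percentage of DMSO wells with cell-free wells as background, came from CellTiter-Glo One luminescence. Reading took place after 48 h at 37°C. Before that, NOMO1 or SEM (500 cells/well) or P12-Ichikawa (1000 cells/well) leukemia cells, adapted for at least four passages in each medium, were seeded in 1536-well plates (5 μl) and pin-dosed with library compounds in DMSO, 47 μM to 0.79 nM over 11 threefold points.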

SEM cells [2] = experiment: as above
Summary of the method: as §1

P12-Ichikawa [3] = experiment: as above
Summary of the method: as §1

SEM cells [4] = experiment: AUC of viability dose-response curve (% viability x log10 dose units); higher = less sensitive
Summary of the method: (§2)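 Library compounds in DMSO were applied for 48 h at 37°C at 11 threefold doses (47 μM to 0.79 nM) to medium-adapted leukemia cells in 1536-well plates holding 500 or 1000 cells/well. Luminescence from CellTiter-Glo One was normalised plate by plate against DMSO and cell-free wells. Area under the curve came from trapezoidal integration of a log-logistic fit, after scaling curves that rose above full viability and discarding those that failed quality control. The fit had four parameters and used log10 doses.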

P12-Ichikawa [5] = experiment: as above
Summary of the method: as §2

NOMO1 [6] = experiment: as above
Summary of the method: as §2

OC1=CC2=C(C=C1)C(=O)\C(=C(O2)\C3=CC(=C(O)C=C3)O)O
cell viability [%]
Details | NOMO1 [1] | P12-Ichikawa [3] | SEM cells [2]
HPLM + 10% dialyzed FBS, 0.000781 µM | 105 | 102 | 103
HPLM + 10% dialyzed FBS, 0.00234 µM | 98 | 105 | 116
HPLM + 10% dialyzed FBS, 0.00702 µM | 108 | 98.2 | 104
HPLM + 10% dialyzed FBS, 0.0211 µM | 93 | 91.1 | 93.6
HPLM + 10% dialyzed FBS, 0.0632 µM | 102 | 94 | 102
HPLM + 10% dialyzed FBS, 0.19 µM | 97.1 | 87.7 | 99.5
HPLM + 10% dialyzed FBS, 0.569 µM | 91.2 | 89.5 | 102
HPLM + 10% dialyzed FBS, 1.71 µM | 105 | 92.4 | 104
HPLM + 10% dialyzed FBS, 5.12 µM | 84 | 86 | 104
HPLM + 10% dialyzed FBS, 15.4 µM | 93.9 | 82.4 | 93.2
HPLM + 10% dialyzed FBS, 46.1 µM | 65.6 | 44 | 32.9
RPMI 5 mM glucose + 10% FBS, 0.000781 µM | 85.9 | 94.1 | 111
RPMI 5 mM glucose + 10% FBS, 0.00234 µM | 91.3 | 94.7 | 113
RPMI 5 mM glucose + 10% FBS, 0.00702 µM | 96.2 | 97.5 | 102
RPMI 5 mM glucose + 10% FBS, 0.0211 µM | 6.71 | 87 | 111
RPMI 5 mM glucose + 10% FBS, 0.0632 µM | 96.6 | 91.2 | 117
RPMI 5 mM glucose + 10% FBS, 0.19 µM | 85 | 96.5 | 102
RPMI 5 mM glucose + 10% FBS, 0.569 µM | 99.7 | 88.8 | 102
RPMI 5 mM glucose + 10% FBS, 1.71 µM | 88.9 | 85.5 | 97
RPMI 5 mM glucose + 10% FBS, 5.12 µM | 74.5 | 86 | 98.2
RPMI 5 mM glucose + 10% FBS, 15.4 µM | 74.8 | 88.1 | 100
RPMI 5 mM glucose + 10% FBS, 46.1 µM | 67.5 | 32.2 | 22.8
RPMI 5 mM glucose + 10% dialyzed FBS, 0.000781 µM | 96.5 | 86.5 | 84.9
RPMI 5 mM glucose + 10% dialyzed FBS, 0.00234 µM | 103 | 91.1 | 98.1
RPMI 5 mM glucose + 10% dialyzed FBS, 0.00702 µM | 101 | 88 | 89.9
RPMI 5 mM glucose + 10% dialyzed FBS, 0.0211 µM | 96.3 | 87.2 | 91.6
RPMI 5 mM glucose + 10% dialyzed FBS, 0.0632 µM | 100 | 97.6 | 99.2
RPMI 5 mM glucose + 10% dialyzed FBS, 0.19 µM | 92 | 88.1 | 96.5
RPMI 5 mM glucose + 10% dialyzed FBS, 0.569 µM | 93.3 | 85 | 103
RPMI 5 mM glucose + 10% dialyzed FBS, 1.71 µM | 89.5 | 84.8 | 88.5
RPMI 5 mM glucose + 10% dialyzed FBS, 5.12 µM | 81.3 | 90.4 | 85.9
RPMI 5 mM glucose + 10% dialyzed FBS, 15.4 µM | 81.3 | 79.7 | 75.1
RPMI 5 mM glucose + 10% dialyzed FBS, 46.1 µM | 60.1 | 32.5 | 20.1

AUC of viability dose-response curve
Details | HPLM + 10% dialyzed FBS | RPMI 5 mM glucose + 10% FBS | RPMI 5 mM glucose + 10% dialyzed FBS
P12-Ichikawa [5] | 430 | 420 | 406
SEM cells [4] | 456 | 456 | 418

Cc1nc(NC(=O)N2CCC[C@H]2C(N)=O)sc1-c1csc(C(C)(C)C)n1
AUC of viability dose-response curve
Details | NOMO1 [6] | P12-Ichikawa [5] | SEM cells [4]
HPLM + 10% dialyzed FBS | 323 | 331 | 309
RPMI 5 mM glucose + 10% FBS | 346 | 334 | 302
RPMI 5 mM glucose + 10% dialyzed FBS | 335 | 350 | 312

COc1ccc2cc3[n+](cc2c1OC)CCc1cc2c(cc1-3)OCO2
AUC of viability dose-response curve
Details | NOMO1 [6] | P12-Ichikawa [5] | SEM cells [4]
HPLM + 10% dialyzed FBS | 431 | 429 | 445
RPMI 5 mM glucose + 10% FBS | 441 | 390 | 437
RPMI 5 mM glucose + 10% dialyzed FBS | 442 | 411 | 428

CC(=O)c1cnc2ccc(-c3cc(Cl)c(O)c(Cl)c3)nc2c1N[C@H]1CC[C@H](CN(C)C)CC1
SEM cells [2], HPLM + 10% dialyzed FBS
Details | cell viability [%]
0.000781 µM | 110
0.00234 µM | 101
0.00702 µM | 105
0.0211 µM | 99.2
0.0632 µM | 63.5
0.19 µM | 25.4
0.569 µM | 16.2
1.71 µM | 6.2
5.12 µM | 6.52
15.4 µM | 5.71
46.1 µM | 6.59

AUC of viability dose-response curve
Details | NOMO1 [6] | P12-Ichikawa [5] | SEM cells [4]
HPLM + 10% dialyzed FBS | 211 | 277 | 218
RPMI 5 mM glucose + 10% FBS | 237 | 256 | 213
RPMI 5 mM glucose + 10% dialyzed FBS | 237 | 253 | 208

Cl.Cl.Clc1ccc(Nc2nnc(Cc3ccncc3)c3ccccc23)cc1
AUC of viability dose-response curve
Details | NOMO1 [6] | P12-Ichikawa [5] | SEM cells [4]
HPLM + 10% dialyzed FBS | 448 | 442 | 449
RPMI 5 mM glucose + 10% FBS | 469 | 472 | 446
RPMI 5 mM glucose + 10% dialyzed FBS | 460 | 446 | 357

CN(C)Cc1c(C(=O)NCCOc2ccc(C(=O)NO)cc2)oc2ccccc12
AUC of viability dose-response curve
Details | NOMO1 [6] | P12-Ichikawa [5] | SEM cells [4]
HPLM + 10% dialyzed FBS | 366 | 347 | 324
RPMI 5 mM glucose + 10% FBS | 372 | 345 | 326
RPMI 5 mM glucose + 10% dialyzed FBS | 375 | 357 | 332

O=C/1NC(=O)C(=C1C2=CN=C3C=CC=C[N]23)/C4=C[N]5CCN(CC6=C5C4=CC=C6)C(=O)N7CCOCC7
cell viability [%]
Details | HPLM + 10% dialyzed FBS | RPMI 5 mM glucose + 10% FBS | RPMI 5 mM glucose + 10% dialyzed FBS
NOMO1 [1], 0.000781 µM | – | 109 | –
NOMO1 [1], 0.00234 µM | – | 121 | –
NOMO1 [1], 0.00702 µM | – | 137 | –
NOMO1 [1], 0.0211 µM | – | 136 | –
NOMO1 [1], 0.0632 µM | – | 140 | –
NOMO1 [1], 0.19 µM | – | 146 | –
NOMO1 [1], 0.569 µM | – | 144 | –
NOMO1 [1], 1.71 µM | – | 127 | –
NOMO1 [1], 5.12 µM | – | 144 | –
NOMO1 [1], 15.4 µM | – | 128 | –
NOMO1 [1], 46.1 µM | – | 144 | –
SEM cells [2], 0.000781 µM | 111 | 96.7 | 101
SEM cells [2], 0.00234 µM | 104 | 106 | 102
SEM cells [2], 0.00702 µM | 62.9 | 65.2 | 63.8
SEM cells [2], 0.0211 µM | 14.5 | 17.9 | 22.2
SEM cells [2], 0.0632 µM | 14.7 | 14.7 | 17.1
SEM cells [2], 0.19 µM | 14.1 | 16.1 | 13.1
SEM cells [2], 0.569 µM | 13.7 | 15 | 16.3
SEM cells [2], 1.71 µM | 11.3 | 12.4 | 14
SEM cells [2], 5.12 µM | 10.6 | 13.8 | 14.6
SEM cells [2], 15.4 µM | 9.94 | 13.1 | 11.1
SEM cells [2], 46.1 µM | 10.3 | 12.8 | 10.6

AUC of viability dose-response curve
Details | NOMO1 [6] | P12-Ichikawa [5] | SEM cells [4]
HPLM + 10% dialyzed FBS | 470 | 334 | 138
RPMI 5 mM glucose + 10% FBS | 465 | 301 | 153
RPMI 5 mM glucose + 10% dialyzed FBS | 462 | 370 | 151
